Assay results as given in patent US20260098030A1, “NEGATIVE ALLOSTERIC MODULATORS OF METABOTROPIC GLUTAMATE RECEPTOR 2” (Vanderbilt University, priority 2022, published 2026).

Biological target: T1, human mGlu2 (Homo sapiens, UniProt Q14416)
T1 construct: expressed in transfected cells; host or cells: HEK-293 cells stably co-expressing GIRK channels
Assay: mGlu GIRK cell-based thallium flux assay, human mGlu2
Conditions: HEK-293 cells co-expressing human mGlu2 and GIRK, EC80 glutamate
Method: Human embryonic kidney (HEK-293) cell lines stably co-expressing human or rat mGlu2 and G protein-coupled inwardly rectifying potassium (GIRK) channels, or human mGlu3 and GIRK, were used for in vitro evaluation of compound activity in thallium flux assay using a fluorescent thallium indicator dye.
The day before the assay, GIRK cells co-expressing human mGlu3, human or rat mGlu2, as described above, were plated in black-walled, clear-bottomed, amine-coated 384-well plates at a density of 15,000 cells/20 μL/well in the assay medium (glutamine-depleted basal DMEM supplemented with 10% dialyzed FBS, 20 mM HEPES, 1 mM sodium pyruvate). Cells were incubated at 37° C. in the presence of 5% CO2. The next day, assay buffer (Hanks balanced salt solution, 20 mM HEPES, 4.16 mM sodium bicarbonate, pH 7.2) was prepared to dilute compounds and Thallos AM fluorescent dye solution. The 2× Thallos dye solution (final concentration 0.34 μM to the cells) was prepared by mixing the dye stock (2.97 mM in DMSO) to 1:1 with 10% pluronic acid before adding to the assay buffer. Cells were washed with assay buffer using a microplate washer to remove the medium, resulting in 20 μL of buffer remaining in each well. Immediately, 20 μL of 2× Thallos dye solution was added to cells, and incubated for one hour at 25° C. During the cell dye loading incubation period, a 10-point concentration serial dilution of compound was created from a 10 mM DMSO compound stock by performing a 1:3 serial dilution in DMSO using the Bravo liquid handler. The 2× compound plate was generated by transferring 0.24 μL of the diluted compound in each well to a daughter plate using an Echo acoustic liquid handler. This is further diluted in 40 μL assay buffer, resulting in a range from 30 μM to 1.5 nM final concentration in the assay. The agonist plate (5×) was prepared to include EC80 glutamate concentration (a concentration to elicit 80% of a maximally effective glutamate concentration) in thallium buffer (125 mM […], 1 mM magnesium sulfate, 1.8 mM calcium sulfate, 5 mM glucose, 10 mM HEPES, pH 7.2, 12.5 mM thallium sulfate).
After dye-loading, cell plates were washed with assay buffer to remove excess extracellular dye using a microplate washer, resulting in 20 μL of buffer remaining in each well. After a ten-minute equilibration period, cell, compound and agonist plates were loaded into a Hamamatsu μCell kinetic imaging plate reader equipped with liquid handler to monitor fluorescence changes at 480 nm excitation and 540 nm emission settings. Briefly, after collection of baseline fluorescence, 20 μL of compound was added and incubated for two minutes and twenty seconds. This is immediately followed by adding 10 μL of glutamate-thallium buffer to the wells containing compound. The fluorescent signal was monitored an additional 2.5 minutes after the glutamate addition. Multiple reference wells containing no compound received either no glutamate (for a baseline reference), EC80 glutamate, or ECmax glutamate (for normalization to maximum response). Fluorescence was measured throughout the experiment at a frequency of 1 measurement per every 2 seconds before the glutamate addition and a frequency of 1 measurement per every 1 second after the glutamate addition. Each compound concentration series occurred one time in each plate, and replicates from two or three plates were used in each experimental run. Thallium solutions were handled and disposed of according to guidelines from the Vanderbilt University Chemical Safety department.
Data were normalized using a static ratio function (F/F0) by dividing every fluorescent measurement by the initial fluorescent value for the corresponding well. The increase in signal resulting from the glutamate/thallium addition of the second add was measured by determining the slope from 3 seconds to 13 seconds after the addition. […]

T1 sequence (Q14416 19-872): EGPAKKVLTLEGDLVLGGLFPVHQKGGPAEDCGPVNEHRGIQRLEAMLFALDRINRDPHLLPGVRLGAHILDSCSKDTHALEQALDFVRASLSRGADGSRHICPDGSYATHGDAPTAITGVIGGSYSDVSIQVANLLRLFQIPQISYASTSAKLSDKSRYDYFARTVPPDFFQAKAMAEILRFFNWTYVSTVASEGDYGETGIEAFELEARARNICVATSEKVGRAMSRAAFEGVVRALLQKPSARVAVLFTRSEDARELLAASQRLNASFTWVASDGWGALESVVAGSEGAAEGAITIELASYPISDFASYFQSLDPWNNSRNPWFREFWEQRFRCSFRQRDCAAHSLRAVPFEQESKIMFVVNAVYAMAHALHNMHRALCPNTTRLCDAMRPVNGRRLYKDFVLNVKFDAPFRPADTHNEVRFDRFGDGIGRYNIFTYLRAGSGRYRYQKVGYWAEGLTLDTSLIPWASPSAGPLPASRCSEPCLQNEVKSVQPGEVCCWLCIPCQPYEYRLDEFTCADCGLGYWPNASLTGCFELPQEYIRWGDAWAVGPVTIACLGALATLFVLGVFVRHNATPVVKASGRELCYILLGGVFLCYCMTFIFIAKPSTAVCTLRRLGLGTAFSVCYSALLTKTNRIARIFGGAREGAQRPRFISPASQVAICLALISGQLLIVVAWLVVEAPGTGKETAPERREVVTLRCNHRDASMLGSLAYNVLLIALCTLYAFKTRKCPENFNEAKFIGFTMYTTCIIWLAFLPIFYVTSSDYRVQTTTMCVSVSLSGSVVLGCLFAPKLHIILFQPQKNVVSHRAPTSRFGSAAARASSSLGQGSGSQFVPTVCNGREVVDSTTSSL

N#Cc1cc(F)ccc1-c1cc2c(cc1-c1ccc(F)cc1F)C(=O)NC2 [Compound 123, 2-(6-(2,4-difluorophenyl)-1-oxoisoindolin-5-yl)-5-fluorobenzonitrile]
IC50: 447 nM

Cc1cc(-c2cc3c(cc2-c2cccc(C#N)c2)CNC3=O)c(F)cc1C#N [Compound 181, 4-(6-(3-cyanophenyl)-3-oxoisoindolin-5-yl)-5-fluoro-2-methylbenzonitrile]
IC50: > 10000 nM

Cc1cc(F)ccc1-c1cc2c(cc1-c1cccc(C#N)c1)CNC2=O [Compound 143, 3-(6-(4-fluoro-2-methylphenyl)-1-oxoisoindolin-5-yl)benzonitrile]
IC50: 1670 nM

Cn1cc(-c2cc3c(cc2-c2ccc(F)cc2F)C(=O)NC3)cc1C#N [Compound 125, 4-(6-(2,4-difluorophenyl)-1-oxoisoindolin-5-yl)-1-methyl-1H-pyrrole-2-carbonitrile]
IC50: 1140 nM

N#Cc1cccc(-c2cc3c(cc2-c2ccc(C(F)(F)F)cc2F)C(=O)NC3)c1 [Compound 144, 3-(6-(2-fluoro-4-(trifluoromethyl)phenyl)-1-oxoisoindolin-5-yl)benzonitrile]
IC50: 3070 nM

CS(=O)(=O)c1ccccc1-c1cc2c(cc1-c1ccc(F)cc1F)C(=O)NC2 [Compound 128, 6-(2,4-difluorophenyl)-5-(2-(methylsulfonyl)phenyl)isoindolin-1-one]
IC50: 3410 nM

[2H]C([2H])(c1ccn(C)n1)C([2H])([2H])c1cc2c(cc1-c1ccc(F)cc1F)C(=O)NC2 [Compound A3, 6-(2,4-difluorophenyl)-5-(2-(1-methyl-1H-pyrazol-3-yl)ethyl-1,1,2,2-d4)isoindolin-1-one]
IC50: 218 nM

CC(C)Cn1cc(-c2cc3c(cc2-c2ccc(F)cc2F)C(=O)NC3)cn1 [Compound 130, 6-(2,4-difluorophenyl)-5-(1-isobutyl-1H-pyrazol-4-yl)isoindolin-1-one]
IC50: 1000 nM

O=C1NCc2cc(-c3cccc4c3OCC4)c(-c3ccc(F)cc3F)cc21 [Compound 149, 6-(2,4-difluorophenyl)-5-(2,3-dihydrobenzofuran-7-yl)isoindolin-1-one]
IC50: 532 nM

COc1ccc(F)c(-c2cc3c(cc2-c2cccc(C#N)c2)CNC3=O)c1 [Compound 170, 3-(6-(2-fluoro-5-methoxyphenyl)-1-oxoisoindolin-5-yl)benzonitrile]
IC50: > 10000 nM

N#Cc1cccc(-c2cc3c(cc2-c2ccc(F)cc2C#N)C(=O)NC3)c1 [Compound 141, 2-(6-(3-cyanophenyl)-3-oxoisoindolin-5-yl)-5-fluorobenzonitrile]
IC50: 220 nM

O=C1NCc2cc(-c3cnn(CC4CC4)c3)c(-c3ccc(F)cc3F)cc21 [Compound 132, 5-(1-(cyclopropylmethyl)-1H-pyrazol-4-yl)-6-(2,4-difluorophenyl)isoindolin-1-one]
IC50: 529 nM

CC(=O)Nc1ccccc1-c1cc2c(cc1-c1ccc(F)cc1F)C(=O)NC2 [Compound 120, N-(2-(6-(2,4-difluorophenyl)-1-oxoisoindolin-5-yl)phenyl)acetamide]
IC50: 1050 nM

N#Cc1cccc(-c2cc3c(cc2-c2ccc(C#N)c(C(F)(F)F)c2)C(=O)NC3)c1 [Compound 179, 4-(6-(3-cyanophenyl)-3-oxoisoindolin-5-yl)-2-(trifluoromethyl)benzonitrile]
IC50: > 10000 nM

O=C1NCc2cc(-c3cnn(CCN4CCOCC4)c3)c(-c3ccc(F)cc3F)cc21 [Compound 154, 6-(2,4-difluorophenyl)-5-(1-(2-morpholinoethyl)-1H-pyrazol-4-yl)isoindolin-1-one]
IC50: > 10000 nM

O=C1NCc2cc(CCc3cncnc3)c(-c3ccc(F)cc3F)cc21 [Compound A2, 6-(2,4-difluorophenyl)-5-(2-(pyrimidin-5-yl)ethyl)isoindolin-1-one]
IC50: 667 nM

Cn1nccc1CCc1cc2c(cc1-c1ccc(F)cc1F)C(=O)NC2 [Compound A7, 6-(2,4-difluorophenyl)-5-(2-(1-methyl-1H-pyrazol-5-yl)ethyl)isoindolin-1-one]
IC50: 208 nM

Cc1cc(-c2cc3c(cc2-c2cccc(C#N)c2)CNC3=O)c(F)cc1F [Compound 177, 3-(6-(2,4-difluoro-5-methylphenyl)-1-oxoisoindolin-5-yl)benzonitrile]
IC50: 1350 nM

N#Cc1cccc(CCc2cc3c(cc2-c2ccc(F)cc2F)C(=O)NC3)c1 [Compound A4, 3-(2-(6-(2,4-difluorophenyl)-1-oxoisoindolin-5-yl)ethyl)benzonitrile]
IC50: 481 nM

O=C1NCc2cc(-c3cnn(CC(F)(F)F)c3)c(-c3ccc(F)cc3F)cc21 [Compound 131, 6-(2,4-difluorophenyl)-5-(1-(2,2,2-trifluoroethyl)-1H-pyrazol-4-yl)isoindolin-1-one]
IC50: 366 nM

COc1ccc(-c2cc3c(cc2-c2cccc(C#N)c2)CNC3=O)c(C)c1 [Compound 175, 3-(6-(4-methoxy-2-methylphenyl)-1-oxoisoindolin-5-yl)benzonitrile]
IC50: > 10000 nM

COc1ccc(-c2cc3c(cc2-c2cccc(C#N)c2)CNC3=O)cc1C#N [Compound 172, 5-(6-(3-cyanophenyl)-3-oxoisoindolin-5-yl)-2-methoxybenzonitrile]
IC50: > 10000 nM

Nc1ccccc1-c1cc2c(cc1-c1ccc(F)cc1F)C(=O)NC2 [Compound 137, 5-(2-aminophenyl)-6-(2,4-difluorophenyl)isoindolin-1-one]
IC50: 816 nM

N#Cc1cccc(-c2cc3c(cc2-c2ccc(C#N)cc2F)C(=O)NC3)c1 [Compound 138, 4-(6-(3-cyanophenyl)-3-oxoisoindolin-5-yl)-3-fluorobenzonitrile]
IC50: 537 nM

CNS(=O)(=O)c1cccc(-c2cc3c(cc2-c2ccc(F)cc2F)C(=O)NC3)c1 [Compound 119, 3-(6-(2,4-difluorophenyl)-1-oxoisoindolin-5-yl)-N-methylbenzenesulfonamide]
IC50: 2700 nM

CN1CCN(c2ccccc2-c2cc3c(cc2-c2ccc(F)cc2F)C(=O)NC3)CC1 [Compound 150, 6-(2,4-difluorophenyl)-5-(2-(4-methylpiperazin-1-yl)phenyl)isoindolin-1-one]
IC50: > 10000 nM

CNC(=O)c1ccc(F)c(-c2cc3c(cc2-c2ccc(F)cc2F)C(=O)NC3)c1 [Compound 121, 3-(6-(2,4-difluorophenyl)-1-oxoisoindolin-5-yl)-4-fluoro-N-methylbenzamide]
IC50: 1440 nM

N#Cc1cccc(-c2cc3c(cc2-c2ccc(C#N)c(F)c2)C(=O)NC3)c1 [Compound 167, 4-(6-(3-cyanophenyl)-3-oxoisoindolin-5-yl)-2-fluorobenzonitrile]
IC50: > 10000 nM

N#Cc1cccc(-c2cc3c(cc2-c2ccc(F)c(C#N)c2)C(=O)NC3)c1 [Compound 178, 5-(6-(3-cyanophenyl)-3-oxoisoindolin-5-yl)-2-fluorobenzonitrile]
IC50: > 10000 nM

CNC(=O)c1cc(Cl)cc(-c2cc3c(cc2-c2ccc(F)cc2F)C(=O)NC3)c1 [Compound 117, 3-chloro-5-(6-(2,4-difluorophenyl)-1-oxoisoindolin-5-yl)-N-methylbenzamide]
IC50: 737 nM

CC(C)n1cc(-c2cc3c(cc2-c2ccc(F)cc2F)C(=O)NC3)cn1 [Compound 133, 6-(2,4-difluorophenyl)-5-(1-isopropyl-1H-pyrazol-4-yl)isoindolin-1-one]
IC50: 1820 nM

O=C1NCc2cc(-c3ccnn3C3CCCCO3)c(-c3ccc(F)cc3F)cc21 (stereo not shown) [Compound 147, 6-(2,4-difluorophenyl)-5-(1-(tetrahydro-2H-pyran-2-yl)-1H-pyrazol-5-yl)isoindolin-1-one]
IC50: 5910 nM

O=C1NCc2cc(CCc3ccn(C4CC4)n3)c(-c3ccc(F)cc3F)cc21 [Compound A8, 5-(2-(1-cyclopropyl-1H-pyrazol-3-yl)ethyl)-6-(2,4-difluorophenyl)isoindolin-1-one]
IC50: 413 nM

N#Cc1cccc(-c2cc3c(cc2-c2cc(F)c(F)cc2F)C(=O)NC3)c1 [Compound 140, 3-(1-oxo-6-(2,4,5-trifluorophenyl)isoindolin-5-yl)benzonitrile]
IC50: 1520 nM
